These are literature values, as cited in patent publication US20040043073A1, “Pharmaceutical compositions for drugs having pH-dependent solubility” (priority 2002, published 2004).

Where two headings read alike, the source gives them in different places.

As for `CC[C@H]1OC(=O)[C@H](C)[C@@H](O[C@H]2C[C@@](C)(OC)[C@@H](O)[C@H](C)O2)[C@H](C)[C@@H](O[C@@H]2O[C@H](C)C[C@H](N(C)C)[C@H]2O)[C@](C)(OC)C[C@@H](C)C(=O)[C@H](C)[C@@H](O)[C@]1(C)O` [clarithromycin, 6-O-methylerythromycin A], the solubility result is on record as “very soluble” (in the stomach (pH 1.2)), “solubility decreases” (lower small intestine (pH 6 to 8)) and “fairly soluble” (upper region of the small intestine (pH 5.0)).
